Tests used:
Type in all cases: biochemical
[1] = target: T1, MMP-8 (Neutrophil Collagenase) (Homo sapiens, UniProt P22894); test: P218 quenched fluorescence assay, MMP-8
T1 construct: Active recombinant truncated form (met^80-gly^242) was obtained according to the protocol of Knauper; made in house
Description: (§1) P218 Quenched Fluorescence Assay for MMP Inhibition:
(§2) This assay is adapted from the one described by Knight et al., FEBS Letters, 296, 263-266 (1992) for MMP-3 and a related substrate. The rate of hydrolysis of the synthetic substrate H-MCA-Pro-Lys-Pro-Leu-Ala-Leu-DPA-Ala-Arg-NH2 (P218) by the respective MMPs is monitored fluorometrically, using an excitation wavelength of 340 nm and an emission wavelength of 395 nm, in the presence or absence of the test compounds. The substrate is made up initially in 100% DMSO to a concentration of 1×10^−2 M, then diluted in assay buffer to a final concentration of 20 μM. […] The total assay volume in a 96 well microtitre plate is 150 μl, Cleavage of the substrate between the Leu-Ala residues allows the fluorescence of the MCA group to be detected on a fluorometer (Cytofluor II) following excitation at 340 nm and emission at 395 nm. Change in fluorescence is continually monitored for a 40 min period.
(§3) The Ki's are calculated using the method described by Williams and Morrison, Methods in Enzymology, 63, 437-467 (1979) to measure Ki apparent for tight binding inhibitors, and is summarised as follows: [I]0/(1−vi/v0)=Ki apparent ×vi/v0+[E]0 [I]0 and [E]0 are inhibitor and enzyme concentrations, and vi/v0 are reaction velocities with/without inhibitor. […]
(§4) IC50's are determined at each enzyme concentration using Xlfit software. […]

[2] = target: T2, MMP-1 (Human Gingival Fibroblast Interstitial Collagenase) (Homo sapiens, UniProt P03956); test: P218 quenched fluorescence assay, MMP-1; settings: read-out: Potency Ki vs. MMP-1
T2 construct: Jack Windsor (supplied, not bought)
T2 sequence (P03956 100-469): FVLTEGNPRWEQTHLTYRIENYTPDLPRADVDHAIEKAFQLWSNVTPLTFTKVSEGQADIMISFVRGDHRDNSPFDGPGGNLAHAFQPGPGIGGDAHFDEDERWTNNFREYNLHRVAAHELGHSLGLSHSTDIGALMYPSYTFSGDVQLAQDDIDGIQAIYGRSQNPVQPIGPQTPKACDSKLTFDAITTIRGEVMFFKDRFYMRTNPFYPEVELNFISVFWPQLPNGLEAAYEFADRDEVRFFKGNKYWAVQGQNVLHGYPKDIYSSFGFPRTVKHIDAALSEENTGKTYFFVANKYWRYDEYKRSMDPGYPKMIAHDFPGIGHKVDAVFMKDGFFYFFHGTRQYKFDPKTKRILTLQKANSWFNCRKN
Description: as §1, §2, §3, §4

MMP-9 (Gelatinase B) = target: T3, MMP-9 (Gelatinase B) (Homo sapiens, UniProt P14780); test: P218 quenched fluorescence assay, MMP-9; settings: read-out: Potency Ki vs. MMP-9
T3 construct: polymorphonuclear leukocytes (PMN) preparations are isolated as described above from 3 or more units of freshly drawn whole blood; from tissue; host or cells: polymorphonuclear leukocytes from whole blood, stimulated with PMA; supernatant purified
Description: as §1, §2, §3, §4

T3 sequence (P14780 94-707): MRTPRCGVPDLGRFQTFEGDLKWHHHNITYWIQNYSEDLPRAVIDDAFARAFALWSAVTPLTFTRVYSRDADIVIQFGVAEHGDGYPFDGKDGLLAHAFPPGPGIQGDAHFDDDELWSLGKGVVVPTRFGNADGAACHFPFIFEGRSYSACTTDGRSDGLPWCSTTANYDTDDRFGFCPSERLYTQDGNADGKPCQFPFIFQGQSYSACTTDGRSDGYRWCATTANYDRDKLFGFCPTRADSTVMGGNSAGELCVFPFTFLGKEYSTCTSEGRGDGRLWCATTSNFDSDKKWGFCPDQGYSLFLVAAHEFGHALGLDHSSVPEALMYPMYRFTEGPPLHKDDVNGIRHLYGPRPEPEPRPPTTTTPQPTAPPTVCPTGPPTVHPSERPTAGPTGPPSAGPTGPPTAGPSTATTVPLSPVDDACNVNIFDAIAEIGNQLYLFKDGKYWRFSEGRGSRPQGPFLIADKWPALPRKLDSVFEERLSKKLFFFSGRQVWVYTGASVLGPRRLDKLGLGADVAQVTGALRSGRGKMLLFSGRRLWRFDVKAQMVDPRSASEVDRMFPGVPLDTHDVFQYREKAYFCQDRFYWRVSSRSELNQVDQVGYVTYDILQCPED
T1 sequence (P22894 100-262): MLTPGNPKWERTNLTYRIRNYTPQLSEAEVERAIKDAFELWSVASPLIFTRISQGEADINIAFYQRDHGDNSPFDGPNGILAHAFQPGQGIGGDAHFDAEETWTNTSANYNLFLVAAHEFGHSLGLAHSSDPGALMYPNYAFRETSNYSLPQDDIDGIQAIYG

| Compound | Ki ([1]; read-out: Potency Ki vs. MMP-8) | Ki [2] | Ki (MMP-9 (Gelatinase B)) | IC50 ([1]; read-out: IC50 vs. MMP-8 (value marked *)) |
| --- | --- | --- | --- | --- |
| O=C(CC(CCN1C(=O)c2ccccc2C1=O)C(=O)O)c1ccc(-c2ccc(Cl)cc2)cc1 (single isomer, unassigned; (+)) [Example 4, (+)-4-(4′-Chloro[1,1′-biphenyl]4-yl)-2-[2-(1,3-dioxo-1,3-dihydro-2H-isoindol-2-yl)ethyl]-4-oxobutanoic acid] | 7.5 nM | 639 nM | 0.7 nM | – |
| CCOc1ccc(-c2ccc(C(=O)CC(CCN3C(=O)c4ccccc4C3=O)C(=O)O)cc2)cc1 (single isomer, unassigned; (+)) [Example 2, (+)-2-[2-(1,3-Dioxo-1,3-dihydro-2H-isoindol-2-yl)ethyl]-4-(4′-ethoxy[1,1′-biphenyl]-4-yl)-4-oxobutanoic acid] | – | > 3000 nM | 1.2 nM | 21.6 nM |

From patent US6900194B1, “Use of substituted 4-biarylbutyric and 5-biarylpentanoic acid derivatives as matrix metalloprotease inhibitors for the treatment of respiratory diseases” (Bayer Aktiengesellschaft, priority 1998, dated 2005)
